Results as given in ChEMBL document CHEMBL1201862, “PubChem BioAssay data set” (2004).
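Interpolation was linear, between the two tested concentrations surrounding the appropriate level; five concentrations were tested over 48 hours in 96-well plates. GI50 marks 50% less growth.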 The source made the active and inactive calls. Cut-off read from the data, not from the text of the source: active = GI50 up to about 1.1 µM and inactive = higher.

Assays:
Assay in all cases: NCI-60 cell line screen, 48 h
[1] = system: LOX IMVI
[2] = system: HL-60
[3] = system: CAKI-1
[4] = system: A498
[5] = system: HCT-116
[6] = system: DMS-114
[7] = system: SK-MEL-5
[8] = system: SN12C
[9] = system: SK-MEL-28
[10] = system: SF-539
[11] = system: K562
[12] = system: DMS-273
[13] = system: SNB-75
[14] = system: OVCAR-4
[15] = system: HOP-62
[16] = system: SW-620
[17] = system: RXF 393
[18] = system: A549
[19] = system: NCI/ADR-RES
[20] = system: SK-MEL-2
[21] = system: EKVX
[22] = system: HT-29
[23] = system: MCF7
[24] = system: SNB-78
[25] = system: OVCAR-5
[26] = system: RPMI-8226
[27] = system: SF-295
[28] = system: U-251
[29] = system: SK-OV-3
[30] = system: HCC 2998
[31] = system: NCI-H460
[32] = system: NCI-H23
[33] = system: SNB-19
[34] = system: HOP-18
[35] = system: HCT-15
[36] = system: CCRF-CEM
[37] = system: IGROV-1
[38] = system: UACC-257
[39] = system: HOP-92
[40] = system: KM-20L2
[41] = system: UACC-62
[42] = system: DLD-1
[43] = system: SF-268
[44] = system: MOLT-4
[45] = system: XF498
[46] = system: OVCAR-8
[47] = system: UO-31
[48] = system: NCI-H226
[49] = system: KM12
[50] = system: COLO 205
[51] = system: M14
[52] = system: ACHN
[53] = system: NCI-H522
[54] = system: 786-0
[55] = system: TK-10
[56] = system: M19-MEL
[57] = system: Malme-3M
[58] = system: OVCAR-3

For `COc1ccc2nc3c(C(=O)NCCN(C)C)cccc3cc2c1`, the GI50 [1] was 1.63 µM (inactive), the GI50 [2] was 1.4 µM (inactive) and the GI50 [3] was 0.103 µM (active). The GI50 [4] was 1.36 µM (inactive), the GI50 [5] was 0.908 µM (active) and the GI50 [6] was 1.91 µM (inactive). For the same compound, the GI50 [7] was 1.64 µM (inactive), the GI50 [8] was 1.75 µM (inactive) and the GI50 [9] was 2.98 µM (inactive). The GI50 [10] was 3.15 µM (inactive), the GI50 [11] was 3.07 µM (inactive) and the GI50 [12] was 1.28 µM (inactive). For the same compound, the GI50 [13] was 2.17 µM (inactive), the GI50 [14] was 2.6 µM (inactive) and the GI50 [15] was 2.63 µM (inactive). For the same compound, the GI50 [16] was 1.42 µM (inactive), the GI50 [17] was 1.78 µM (inactive) and the GI50 [18] was 1.49 µM (inactive). The GI50 [19] was 1.41 µM (inactive), the GI50 [20] was 2.49 µM (inactive) and the GI50 [21] was 2.34 µM (inactive). For the same compound, the GI50 [22] was 1.29 µM (inactive), the GI50 [23] was 1.35 µM (inactive) and the GI50 [24] was 3.76 µM (inactive). For the same compound, the GI50 [25] was 2.1 µM (inactive), the GI50 [26] was 2.16 µM (inactive) and the GI50 [27] was 1.96 µM (inactive). For the same compound, the GI50 [28] was 3.48 µM (inactive), the GI50 [29] was 2.21 µM (inactive) and the GI50 [30] was 3.79 µM (inactive). The GI50 [31] was 0.724 µM (active), the GI50 [32] was 2.09 µM (inactive) and the GI50 [33] was 2.23 µM (inactive). For the same compound, the GI50 [34] was > 100 µM (inactive), the GI50 [35] was 2.25 µM and the GI50 [36] was 1.78 µM (inactive). For the same compound, the GI50 [37] was 2.03 µM (inactive), the GI50 [38] was 2.11 µM (inactive) and the GI50 [39] was 2.28 µM (inactive). The GI50 [40] was 0.562 µM (active), the GI50 [41] was 1.46 µM (inactive) and the GI50 [42] was 2.16 µM (inactive). The GI50 [43] was 2.82 µM (inactive), the GI50 [44] was 0.569 µM (active) and the GI50 [45] was 1.85 µM (inactive). For the same compound, the GI50 [46] was 1.47 µM (inactive), the GI50 [47] was 1.44 µM (inactive) and the GI50 [48] was 1.44 µM (inactive). For the same compound, the GI50 [49] was 2.96 µM (inactive) and the GI50 [50] was 0.893 µM (active).
`O=C(O)c1ccccc1/N=N/c1ccc2oc(=O)c(C(=O)Nc3ccccc3)cc2c1` was tested, and the GI50 [51] was 47.9 µM (inactive), the GI50 [1] was 35.9 µM (inactive) and the GI50 [2] was 24.4 µM (inactive). The GI50 [5] was 29.6 µM (inactive), the GI50 [6] was 25.1 µM (inactive) and the GI50 [7] was 28.4 µM (inactive). For the same compound, the GI50 [8] was 45.1 µM (inactive), the GI50 [9] was 36.6 µM (inactive) and the GI50 [10] was 31.3 µM (inactive). The GI50 [11] was 39.6 µM (inactive), the GI50 [12] was 39 µM (inactive) and the GI50 [52] was 50.2 µM (inactive). For the same compound, the GI50 [13] was 33 µM (inactive), the GI50 [15] was 35.6 µM (inactive) and the GI50 [16] was 49.7 µM (inactive). For the same compound, the GI50 [17] was 28.4 µM (inactive), the GI50 [53] was 34.8 µM (inactive) and the GI50 [54] was 70.8 µM (inactive). The GI50 [55] was 61.5 µM (inactive), the GI50 [18] was 40.8 µM (inactive) and the GI50 [21] was 30.1 µM (inactive). For the same compound, the GI50 [22] was 38.4 µM (inactive), the GI50 [56] was 33.3 µM (inactive) and the GI50 [26] was 19.1 µM (inactive). The GI50 [27] was 50.2 µM (inactive), the GI50 [28] was 42.4 µM (inactive) and the GI50 [29] was 52.8 µM (inactive). The GI50 [31] was 36.6 µM (inactive), the GI50 [32] was 34 µM (inactive) and the GI50 [33] was 32.3 µM (inactive). For the same compound, the GI50 [34] was 30.1 µM (inactive), the GI50 [35] was 32.7 µM and the GI50 [57] was 23.7 µM (inactive). For the same compound, the GI50 [36] was 28.6 µM (inactive), the GI50 [37] was 46.5 µM (inactive) and the GI50 [38] was 24.6 µM (inactive). For the same compound, the GI50 [40] was 24.8 µM (inactive), the GI50 [41] was 22.9 µM (inactive) and the GI50 [42] was 40.9 µM (inactive). The GI50 [44] was 32.8 µM (inactive), the GI50 [58] was 20.4 µM (inactive) and the GI50 [45] was 45.8 µM (inactive). For the same compound, the GI50 [46] was 38.1 µM (inactive), the GI50 [47] was 37.1 µM (inactive) and the GI50 [48] was 25.7 µM (inactive). For the same compound, the GI50 [49] was 31.8 µM (inactive) and the GI50 [50] was 30.3 µM (inactive).
In the case of `CCCNC(=O)C(C)C1CCC2(C)C=CC(=O)C(C)=C2C1O` (centres undefined), the GI50 [1] is reported as > 100 µM (inactive), the GI50 [2] is reported as > 100 µM (inactive) and the GI50 [3] is reported as > 100 µM (inactive). For the same compound, the GI50 [4] was > 100 µM (inactive), the GI50 [5] was > 100 µM (inactive) and the GI50 [6] was > 100 µM (inactive). For the same compound, the GI50 [7] was > 100 µM (inactive), the GI50 [8] was > 100 µM (inactive) and the GI50 [9] was > 100 µM (inactive). The GI50 [10] was > 100 µM (inactive), the GI50 [11] was > 100 µM (inactive) and the GI50 [12] was > 100 µM (inactive). For the same compound, the GI50 [13] was > 100 µM (inactive), the GI50 [14] was > 100 µM (inactive) and the GI50 [15] was > 100 µM (inactive). For the same compound, the GI50 [16] was > 100 µM (inactive), the GI50 [17] was > 100 µM (inactive) and the GI50 [53] was > 100 µM (inactive). The GI50 [18] was > 100 µM (inactive), the GI50 [19] was > 100 µM (inactive) and the GI50 [20] was > 100 µM (inactive). For the same compound, the GI50 [21] was > 100 µM (inactive), the GI50 [22] was > 100 µM (inactive) and the GI50 [23] was > 100 µM (inactive). For the same compound, the GI50 [25] was > 100 µM (inactive), the GI50 [56] was > 100 µM (inactive) and the GI50 [26] was > 100 µM (inactive). For the same compound, the GI50 [27] was > 100 µM (inactive), the GI50 [28] was > 100 µM (inactive) and the GI50 [29] was > 100 µM (inactive). For the same compound, the GI50 [30] was > 100 µM (inactive), the GI50 [31] was > 100 µM (inactive) and the GI50 [32] was > 100 µM (inactive). For the same compound, the GI50 [33] was > 100 µM (inactive), the GI50 [34] was > 100 µM (inactive) and the GI50 [35] was over 100 µM. The GI50 [36] was > 100 µM (inactive), the GI50 [37] was > 100 µM (inactive) and the GI50 [38] was > 100 µM (inactive). The GI50 [39] was > 100 µM (inactive), the GI50 [40] was > 100 µM (inactive) and the GI50 [41] was > 100 µM (inactive). The GI50 [42] was > 100 µM (inactive), the GI50 [43] was > 100 µM (inactive) and the GI50 [44] was > 100 µM (inactive). For the same compound, the GI50 [58] was > 100 µM (inactive), the GI50 [45] was > 100 µM (inactive) and the GI50 [46] was > 100 µM (inactive). For the same compound, the GI50 [47] was > 100 µM (inactive), the GI50 [48] was > 100 µM (inactive) and the GI50 [49] was > 100 µM (inactive). For the same compound, the GI50 [50] was > 100 µM (inactive).
